Experimental data from US7316816B2, “Temperature and pH sensitive copolymers” (Agency for Science Technology and Research, priority 2004, dated 2008).

Tests used:
[1] = cited from earlier work
[2] = In vitro drug release by dialysis; type: physicochemical; conditions: pH 7.4 and 6.0
Procedure: DOX release from the nanoparticles was studied at pH 6.0, 6.6 and 7.4. A certain amount of DOX-loaded freeze-dried nanoparticles was dispersed in 200 μL of the respective buffer solution and allowed to stabilize for 30 minutes before being placed in a dialysis membrane with a molecular weight cut-off of 2000 (Spectra/Por). The dialysis bag was then immersed in 25 mL of PBS with pH 6.0, 6.6 or 7.4 at 37° C. The samples were drawn at specific time intervals and the drug concentration was analyzed using the UV-VIS spectrophotometer as stated in paragraph A(vi) of the present example.

effect of pH on release of free DOX from the dialysis bag [2]	SMILES	pKa [1]
	Nc1nc2ncc(CNc3ccc(C(=O)N[C@@H](CCC(=O)O)C(=O)O)cc3)nc2c(=O)[nH]1 [Folic acid]	~5.4
no significant effect of pH	COc1cccc2c1C(=O)c1c(O)c3c(c(O)c1C2=O)C[C@@](O)(C(=O)CO)C[C@@H]3O[C@H]1C[C@H](N)[C@H](O)[C@H](C)O1 [DOX, doxorubicin]	
